According to patent US8354498B2, “CD4 mimic peptides and their uses” (Commissariat a l'Energie Atomique, priority 2006, dated 2013):
Read-outs that look alike come from different tables or passages of the source.

Key:
Type in all cases: cell-based
HIV-1 pseudovirus Ba-L = test: HIV single cycle pseudovirus assay in GHOST cells; conditions: read-out: antiviral activity EC50
Procedure: (§1) For single-cycle infection experiments, HIV pseudoviruses representative of different HIV-1 subtypes were produced by co-transfection of 2×10^5 HEK293 (American Type Culture Collection) derived cells expressing the SV40 T antigen (HEK293 T), using the calcium phosphate method (ProFection® mammalian transfection system; PROMEGA). To this end, 1 μg of an HIV-1 env expressing vector under control of a CMV promoter, derived from pcDNA4/TO backbone vector (INVITROGEN) and 400 ng of the HIV-1 genomic vector (pNL4-3.Luc R^−E^−; National Institutes of Health AIDS Research and Reference Reagent program; catalogue number 3418), under control of the LTR promoter were used. pNL4-3.Luc R^−E^− contains the whole HIV genome, including a packaging signal, but has a frameshift in the env and vpr genes rendering it non-infectious. Furthermore a luciferase reporter gene replaces the nef gene. After 24 h, the medium was replaced with medium containing 1 mM sodium butyrate (SIGMA-ALDRICH) and the cells were further incubated for an additional 24 h. Afterwards, the supernatant with the pseudovirus was harvested, filtered (Millex 0.45 μm filters, MILLIPORE) and after adding Fetal calf serum (FCS; 10%) stored at −80° C. Pseudoviruses of different HIV-1 subtypes were created, including pseudoviruses derived from the subtype B, CCR5 co-receptor using strains Ba-L and SF162; the subtype B, CXCR4 co-receptor using strains Mn; the subtype C, CCR5 co-receptor using strains VI829, VI1358 and MJ4 and the CRF01_AE, CXCR4 co-receptor using strain CA10-3.
(§2) Fifty microliters of HIV pseudovirus were pre-incubated with 50 μl of a dilution series of a CD4 miniprotein or reference compound. After 15 minutes, 100 μl of GHOST target cells (AIDS REFERENCE AND REAGENT PROGRAM; 1.2×10^5 cells/ml) expressing CD4 and either of the HIV co-receptors CCR5 or CXCR4 were added to the 96-well cups containing the pre-treated pseudovirus. The GHOST cells were lysed 48 h post-infection by addition of the luciferin substrate (SteadyLite HTS, PERKIN ELMER LIFE SCIENCES). The resulting light signal, expressed as relative lights units (RLU), was quantified in a luminometer (Top Count™, CANBERRA-PACKARD).

HIV-1 pseudovirus CA10-3 = test: HIV single cycle pseudovirus assay in GHOST cells; conditions: read-out: antiviral activity EC50
Procedure: as §1, §2

HIV-1 pseudovirus MJ4 = test: HIV single cycle pseudovirus assay in GHOST cells; conditions: read-out: antiviral activity EC50
Procedure: as §1, §2

HIV-1 pseudovirus Mn = test: HIV single cycle pseudovirus assay in GHOST cells; conditions: read-out: antiviral activity EC50
Procedure: as §1, §2

HIV-1 pseudovirus SF162 = test: HIV single cycle pseudovirus assay in GHOST cells; conditions: read-out: antiviral activity EC50
Procedure: as §1, §2

HIV-1 pseudovirus VI1358 = test: HIV single cycle pseudovirus assay in GHOST cells; conditions: read-out: antiviral activity EC50
Procedure: as §1, §2

HIV-1 pseudovirus VI829 = test: HIV single cycle pseudovirus assay in GHOST cells; conditions: read-out: antiviral activity EC50
Procedure: as §1, §2

HIV-1 Ba-L = test: Dendritic cells assay: MO-DC/CD4+ T cell co-cultures, replication competent virus; conditions: for EC50: Human immunodeficiency virus 1, BAL
Procedure: Dendritic cell experiments were preformed with the replication-competent CCR5 co-receptor, using non-syncytium inducing, subtype B HIV-1 strain Ba-L whose infectious titer was determined on cultures of PHA/IL-2 stimulated PBMC.
Monocytes were separated from the buffy-coats of HIV seronegative blood donors by counter-flow elutriation and E-rosetting. They were subsequently differentiated to monocyte-derived dendritic cells (MO-DC) using GM-CSF and IL-4. […] After 30 minutes, 100 μl of MO-DC were added (4×10^5 cells/ml) and incubated for 2 h (37° C., 5% CO2). Afterwards, cells were washed 3 times and autologous CD4+ T cells were added, in the presence of compound. Co-cultures were incubated for 24 h, after which the cells were washed again (3 times) to remove the compound. Cells were incubated during 14 days of primary culture, during which half of the culture medium was refreshed twice weekly, without compound. At day 14, cultures were washed and PHA/IL-2 activated PBMC were added (2×10^5 cells/cup) to detect any latent or subliminal infection during a supplementary 14 days of secondary culture. Culture supernatants of primary (day 7 and day 14) and secondary (day 28) cultures were analyzed for the presence of HIV p24 Ag by a monoclonal p24 antibody (HuMab-HIVp24; BIOMARIC NV) enzyme-linked immunosorbant assay (ELISA).
Importantly, the replication-competent HIV-1 Ba-L reference strain, was used for these experiments. The virus was shortly pre-incubated with a dilution range of one of the compounds before addition of the MO-DC target cells. The compound remained present during infection and during the first 24 h of the co-culture of the MO-DC with the autologous CD4^+ T cells, but was washed away afterwards.

Cc1cc(C)c(Nc2ccnc(Nc3ccc(C#N)cc3)n2)c(C)c1 [TMC120]
EC50 (HIV-1 pseudovirus Ba-L): 1.5 nM | EC50 (HIV-1 pseudovirus CA10-3): 1.5 nM | EC50 (HIV-1 pseudovirus MJ4): 1.5 nM | EC50 (HIV-1 pseudovirus Mn): 1.8 nM | EC50 (HIV-1 pseudovirus SF162): 0.9 nM | EC50 (HIV-1 pseudovirus VI1358): 0.6 nM | EC50 (HIV-1 pseudovirus VI829): 1.2 nM | EC50 (HIV-1 Ba-L; 168 h, Day 7, read-out: EC50, primary culture, Day 7): 3 nM | EC50 (HIV-1 Ba-L; 336 h, Day 14, read-out: EC50, primary culture, Day 14): 3 nM | Cmin, secondary culture, Day 28 (minimal concentration blocking infection) (HIV-1 Ba-L; confirmed at Day 28): 100 nM
